How the values were obtained:
[1] = target: T1, 5-hydroxytryptamine receptor 3A (Homo sapiens, UniProt P46098); test: Displacement of [3H]-GR65630 from human 5-HT3 receptor expressed in HEKT cells after 90 mins by microbeta scintillation counting analysis; format: cell-based
T1 sequence (P46098 whole entry): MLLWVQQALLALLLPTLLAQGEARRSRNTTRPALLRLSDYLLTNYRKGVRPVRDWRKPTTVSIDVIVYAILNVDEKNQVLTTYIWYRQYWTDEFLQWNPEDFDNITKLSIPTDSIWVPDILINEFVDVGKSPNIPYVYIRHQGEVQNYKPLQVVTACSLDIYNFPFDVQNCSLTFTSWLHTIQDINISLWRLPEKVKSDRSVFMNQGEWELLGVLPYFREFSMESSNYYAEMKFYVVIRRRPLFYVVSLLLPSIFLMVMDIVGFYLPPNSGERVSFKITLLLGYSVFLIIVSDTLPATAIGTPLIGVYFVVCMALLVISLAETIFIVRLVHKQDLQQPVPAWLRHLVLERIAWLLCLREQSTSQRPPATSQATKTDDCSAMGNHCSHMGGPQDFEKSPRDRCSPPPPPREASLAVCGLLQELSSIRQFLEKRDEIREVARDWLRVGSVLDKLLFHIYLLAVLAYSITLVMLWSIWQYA

[2] = target: T2, 5-hydroxytryptamine receptor 2B (Homo sapiens, UniProt P41595); test: Displacement of [3H]-LSD from human 5-HT2B receptor expressed in HEK cells after 90 mins by microbeta scintillation counting analysis; format: cell-based
[3] = target: T3, 5-hydroxytryptamine receptor 7 (Homo sapiens, UniProt P34969); test: Displacement of [3H]-LSD from human 5-HT7A receptor expressed in HEK cells after 90 mins by microbeta scintillation counting analysis; format: cell-based
[4] = target: T4, 5-hydroxytryptamine receptor 1A (Homo sapiens, UniProt P08908); test: Antagonist activity at 5-HT1A receptor (unknown origin) by Tango assay; format: functional
T4 sequence (P08908 whole entry): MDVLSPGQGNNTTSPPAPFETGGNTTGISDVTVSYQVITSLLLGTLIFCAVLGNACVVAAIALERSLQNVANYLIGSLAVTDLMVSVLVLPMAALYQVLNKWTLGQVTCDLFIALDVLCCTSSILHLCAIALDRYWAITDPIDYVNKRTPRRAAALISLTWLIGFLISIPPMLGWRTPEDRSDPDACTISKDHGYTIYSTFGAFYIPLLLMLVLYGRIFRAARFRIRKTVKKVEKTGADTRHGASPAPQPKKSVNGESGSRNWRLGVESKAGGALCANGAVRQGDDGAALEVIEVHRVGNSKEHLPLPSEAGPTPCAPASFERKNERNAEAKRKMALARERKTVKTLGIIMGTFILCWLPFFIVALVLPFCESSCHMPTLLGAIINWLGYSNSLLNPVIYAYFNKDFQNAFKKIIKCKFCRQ

[5] = target: T5, 5-hydroxytryptamine receptor 1D (Homo sapiens, UniProt P28221); test: Displacement of [3H]5-CT from human 5-HT1D receptor expressed in HEKT cells after 90 mins by microbeta scintillation counting analysis; format: cell-based
[6] = target: T6, 5-hydroxytryptamine receptor 5A (Homo sapiens, UniProt P47898); test: Displacement of [3H]-LSD from human 5-HT5A receptor expressed in Flp-In CHO cells after 90 mins by microbeta scintillation counting analysis; format: cell-based
[7] = target: T2, 5-hydroxytryptamine receptor 2B; test: Antagonist activity at 5-HT2B receptor (unknown origin) by calcium release assay; format: functional
[8] = target: T7, 5-hydroxytryptamine receptor 6 (Homo sapiens, UniProt P50406); test: Displacement of [3H]-LSD from human 5-HT6 receptor expressed in HEK cells after 90 mins by microbeta scintillation counting analysis; format: cell-based
[9] = target: T8, 5-hydroxytryptamine receptor 1E (Homo sapiens, UniProt P28566); test: Displacement of [3H]5-HT from human 5-HT1E receptor expressed in HEK cells after 90 mins by microbeta scintillation counting analysis; format: cell-based
[10] = target: T9, 5-hydroxytryptamine receptor 2C (Homo sapiens, UniProt P28335); test: Displacement of [3H]-Mesulergine from human 5-HT2C receptor expressed in HEKT cells after 90 mins by microbeta scintillation counting analysis; format: cell-based
T9 sequence (P28335 whole entry): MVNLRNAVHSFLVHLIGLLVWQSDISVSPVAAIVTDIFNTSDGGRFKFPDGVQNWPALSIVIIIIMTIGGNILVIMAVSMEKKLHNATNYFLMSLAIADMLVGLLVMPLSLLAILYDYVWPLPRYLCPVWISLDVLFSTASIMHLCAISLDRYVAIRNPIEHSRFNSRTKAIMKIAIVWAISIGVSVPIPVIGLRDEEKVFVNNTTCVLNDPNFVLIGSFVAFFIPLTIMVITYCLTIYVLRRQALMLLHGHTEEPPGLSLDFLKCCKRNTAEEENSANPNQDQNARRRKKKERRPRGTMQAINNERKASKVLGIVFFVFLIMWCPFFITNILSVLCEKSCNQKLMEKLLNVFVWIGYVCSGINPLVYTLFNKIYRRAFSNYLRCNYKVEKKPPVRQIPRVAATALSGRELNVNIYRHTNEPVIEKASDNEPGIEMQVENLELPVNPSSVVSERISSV

[11] = target: T3, 5-hydroxytryptamine receptor 7; test: Binding affinity to 5-HT7A receptor (unknown origin) by radioligand binding assay
[12] = target: T2, 5-hydroxytryptamine receptor 2B; test: Displacement of [3H]-LSD from human 5-HT2B receptor expressed in baculovirus infected Sf9 cells
[13] = target: T10, 5-hydroxytryptamine receptor 1B (Homo sapiens, UniProt P28222); test: Displacement of [3H]-LSD from human 5-HT1B receptor expressed in baculovirus infected Sf9 cells
[14] = target: T11, 5-hydroxytryptamine receptor 2A (Homo sapiens, UniProt P28223); test: Binding affinity to 5-HT2A receptor (unknown origin) by radioligand binding assay
[15] = target: T9, 5-hydroxytryptamine receptor 2C; test: Binding affinity to 5-HT2C receptor (unknown origin) by radioligand binding assay
[16] = target: T6, 5-hydroxytryptamine receptor 5A; test: Binding affinity to 5-HT5A receptor (unknown origin) by radioligand binding assay
[17] = target: T7, 5-hydroxytryptamine receptor 6; test: Binding affinity to 5-HT6 receptor (unknown origin) by radioligand binding assay
[18] = target: T1, 5-hydroxytryptamine receptor 3A; test: Binding affinity to 5-HT3 receptor (unknown origin) by radioligand binding assay
[19] = target: T8, 5-hydroxytryptamine receptor 1E; test: Binding affinity to 5-HT1E receptor (unknown origin) by radioligand binding assay
[20] = target: T5, 5-hydroxytryptamine receptor 1D; test: Binding affinity to 5-HT1D receptor (unknown origin) by radioligand binding assay
[21] = target: T11, 5-hydroxytryptamine receptor 2A; test: Displacement of [3H]Ketanserin from 5-HT2A (unknown origin) receptor after 90 mins by microbeta scintillation counting analysis
[22] = target: T10, 5-hydroxytryptamine receptor 1B; test: Displacement of [3H]5-CT from human 5-HT1B receptor expressed in HEK cells after 90 mins by microbeta scintillation counting analysis; format: cell-based
[23] = target: T3, 5-hydroxytryptamine receptor 7; test: Antagonist activity at 5-HT7A receptor (unknown origin) by Tango assay

T5 sequence (P28221 whole entry): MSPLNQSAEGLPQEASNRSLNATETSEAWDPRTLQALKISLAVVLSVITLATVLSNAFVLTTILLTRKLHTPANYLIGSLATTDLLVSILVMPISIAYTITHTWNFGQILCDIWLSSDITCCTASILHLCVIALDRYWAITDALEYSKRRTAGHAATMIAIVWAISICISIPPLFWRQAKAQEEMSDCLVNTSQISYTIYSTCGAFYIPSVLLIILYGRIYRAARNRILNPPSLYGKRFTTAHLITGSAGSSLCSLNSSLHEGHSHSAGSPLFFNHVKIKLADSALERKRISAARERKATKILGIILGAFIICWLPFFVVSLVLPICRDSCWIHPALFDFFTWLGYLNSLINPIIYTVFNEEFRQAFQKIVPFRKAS
T10 sequence (P28222 whole entry): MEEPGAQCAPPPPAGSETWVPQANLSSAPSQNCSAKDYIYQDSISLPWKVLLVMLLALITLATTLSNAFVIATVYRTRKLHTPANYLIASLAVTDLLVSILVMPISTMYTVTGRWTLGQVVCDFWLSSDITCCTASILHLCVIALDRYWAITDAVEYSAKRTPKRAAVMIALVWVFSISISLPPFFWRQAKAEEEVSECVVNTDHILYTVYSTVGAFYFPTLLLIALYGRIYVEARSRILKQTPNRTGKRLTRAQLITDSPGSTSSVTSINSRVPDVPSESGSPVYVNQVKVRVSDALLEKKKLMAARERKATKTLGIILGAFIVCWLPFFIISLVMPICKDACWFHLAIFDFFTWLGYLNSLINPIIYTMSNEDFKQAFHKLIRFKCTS
T2 sequence (P41595 whole entry): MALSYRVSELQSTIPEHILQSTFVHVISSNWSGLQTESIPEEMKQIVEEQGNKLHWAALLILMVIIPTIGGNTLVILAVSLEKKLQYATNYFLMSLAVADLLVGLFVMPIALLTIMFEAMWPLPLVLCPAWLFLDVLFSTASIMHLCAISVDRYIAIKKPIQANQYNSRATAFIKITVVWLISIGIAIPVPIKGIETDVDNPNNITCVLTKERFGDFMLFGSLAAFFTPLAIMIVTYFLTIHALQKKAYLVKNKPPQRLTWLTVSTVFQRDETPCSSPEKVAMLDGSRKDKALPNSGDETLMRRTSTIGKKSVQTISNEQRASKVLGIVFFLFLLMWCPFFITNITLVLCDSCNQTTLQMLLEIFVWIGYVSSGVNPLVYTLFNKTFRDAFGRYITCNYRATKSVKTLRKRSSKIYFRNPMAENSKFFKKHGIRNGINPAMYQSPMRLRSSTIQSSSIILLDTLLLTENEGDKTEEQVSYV
T6 sequence (P47898 whole entry): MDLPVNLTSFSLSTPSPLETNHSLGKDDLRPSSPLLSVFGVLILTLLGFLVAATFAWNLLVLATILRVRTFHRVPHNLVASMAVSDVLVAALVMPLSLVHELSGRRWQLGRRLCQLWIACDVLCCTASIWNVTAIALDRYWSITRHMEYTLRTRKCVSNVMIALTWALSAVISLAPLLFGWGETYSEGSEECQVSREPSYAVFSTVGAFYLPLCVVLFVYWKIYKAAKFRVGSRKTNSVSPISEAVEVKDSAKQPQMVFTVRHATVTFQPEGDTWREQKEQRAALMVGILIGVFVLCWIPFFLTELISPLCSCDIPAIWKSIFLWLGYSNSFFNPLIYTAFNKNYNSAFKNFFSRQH
T3 sequence (P34969 whole entry): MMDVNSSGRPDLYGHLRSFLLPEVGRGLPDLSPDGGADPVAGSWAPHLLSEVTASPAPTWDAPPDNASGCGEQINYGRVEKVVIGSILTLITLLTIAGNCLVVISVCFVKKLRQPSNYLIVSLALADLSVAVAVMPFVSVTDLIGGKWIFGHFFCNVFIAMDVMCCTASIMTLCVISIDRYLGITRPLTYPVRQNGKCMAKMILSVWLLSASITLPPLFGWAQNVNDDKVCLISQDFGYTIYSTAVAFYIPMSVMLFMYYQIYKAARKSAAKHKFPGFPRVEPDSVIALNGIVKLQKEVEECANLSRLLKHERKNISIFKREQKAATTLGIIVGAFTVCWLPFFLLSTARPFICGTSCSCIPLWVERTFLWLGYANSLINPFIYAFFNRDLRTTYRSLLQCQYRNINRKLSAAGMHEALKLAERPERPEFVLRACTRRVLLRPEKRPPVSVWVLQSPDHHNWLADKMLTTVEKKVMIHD
T7 sequence (P50406 whole entry): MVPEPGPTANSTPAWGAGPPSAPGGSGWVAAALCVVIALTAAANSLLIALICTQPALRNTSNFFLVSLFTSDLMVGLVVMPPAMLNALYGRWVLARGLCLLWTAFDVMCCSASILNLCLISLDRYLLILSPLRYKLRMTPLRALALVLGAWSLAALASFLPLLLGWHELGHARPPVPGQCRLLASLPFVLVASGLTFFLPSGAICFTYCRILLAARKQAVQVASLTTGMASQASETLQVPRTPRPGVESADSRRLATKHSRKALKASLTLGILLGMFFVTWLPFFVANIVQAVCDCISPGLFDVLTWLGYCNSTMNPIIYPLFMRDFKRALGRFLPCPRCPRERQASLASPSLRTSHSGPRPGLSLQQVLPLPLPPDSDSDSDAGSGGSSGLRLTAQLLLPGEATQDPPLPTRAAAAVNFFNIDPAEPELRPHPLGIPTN
T11 sequence (P28223 whole entry): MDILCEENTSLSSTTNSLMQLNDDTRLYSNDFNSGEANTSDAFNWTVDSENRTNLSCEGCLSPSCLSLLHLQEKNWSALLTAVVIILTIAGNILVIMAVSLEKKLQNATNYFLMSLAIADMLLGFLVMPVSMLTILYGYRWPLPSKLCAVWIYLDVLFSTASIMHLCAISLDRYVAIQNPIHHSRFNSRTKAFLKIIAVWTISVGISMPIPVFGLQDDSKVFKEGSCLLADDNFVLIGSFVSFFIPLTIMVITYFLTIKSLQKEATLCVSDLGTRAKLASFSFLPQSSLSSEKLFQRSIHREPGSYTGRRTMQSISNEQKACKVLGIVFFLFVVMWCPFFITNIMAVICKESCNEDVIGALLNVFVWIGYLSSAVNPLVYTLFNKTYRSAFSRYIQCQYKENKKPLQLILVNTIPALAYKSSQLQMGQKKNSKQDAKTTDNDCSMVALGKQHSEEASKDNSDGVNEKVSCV
T8 sequence (P28566 whole entry): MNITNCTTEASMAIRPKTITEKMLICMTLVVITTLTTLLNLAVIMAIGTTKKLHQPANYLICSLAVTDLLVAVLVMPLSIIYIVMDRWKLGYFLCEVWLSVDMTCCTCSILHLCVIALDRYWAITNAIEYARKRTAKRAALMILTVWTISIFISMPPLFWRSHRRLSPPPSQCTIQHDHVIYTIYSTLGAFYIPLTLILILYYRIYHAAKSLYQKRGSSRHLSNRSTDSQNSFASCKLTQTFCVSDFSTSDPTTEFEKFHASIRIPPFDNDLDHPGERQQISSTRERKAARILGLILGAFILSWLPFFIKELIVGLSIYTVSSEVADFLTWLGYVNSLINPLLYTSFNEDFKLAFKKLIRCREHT

SMILES	Ki [1]	Ki [2]	Ki [3]	Ki [5]	Ki [6]	Ki [8]	Ki [9]	Ki [10]	Ki [21]	Ki [22]	other results
COC(=O)[C@H](Cc1cnc[nH]1)NC(=O)[C@@H]1N=C(c2ccccc2O)S[C@@H]1C	3.1 µM	1.4 µM	> 10 µM	0.53 µM	> 10 µM	> 10 µM	4.6 µM	0.88 µM			IC50 [4]: > 10 µM; IC50 [7]: > 10 µM
O=Cc1csc(-c2ccccc2O)n1											Ki [11]: > 10 µM; Ki [12]: 1.5 µM; Ki [13]: > 10 µM; Ki [14]: > 10 µM; Ki [15]: > 10 µM; Ki [16]: > 10 µM; Ki [17]: > 10 µM; Ki [18]: > 10 µM; Ki [19]: > 10 µM; Ki [20]: > 10 µM
C[C@H]1SC(c2ccccc2O)=N[C@H]1CO		0.4 µM									
Oc1ccccc1C1=NC(Cc2c[nH]cn2)CS1 (racemic)	0.95 µM	0.1 µM	7.4 µM	1.9 µM	> 10 µM	> 10 µM	> 10 µM	> 10 µM	> 10 µM	> 10 µM	
Oc1ccccc1C1=N[C@@H]2CCC[C@@H]2S1 (racemic)	> 10 µM	> 10 µM	> 10 µM	> 10 µM	> 10 µM	> 10 µM	> 10 µM	> 10 µM	> 10 µM	> 10 µM	
C[C@H]1SC(c2ccccc2O)=N[C@@H]1CO (racemic)		0.62 µM						2.2 µM			
NC(=O)C1CSC(c2ccccc2O)=N1 (racemic) [PULICATINS G]											Ki [11]: > 10 µM; Ki [13]: > 10 µM; Ki [14]: > 10 µM; Ki [15]: > 10 µM; Ki [16]: > 10 µM; Ki [17]: > 10 µM; Ki [18]: > 10 µM; Ki [19]: > 10 µM; Ki [20]: > 10 µM
C[C@@H]1SC(c2c[nH]c3ccccc23)=N[C@H]1CO (relative stereo)	2.8 µM	2.4 µM	> 10 µM	2.7 µM	> 10 µM	> 10 µM	> 10 µM	5.4 µM	> 10 µM	> 10 µM	
C[C@@H]1SC(c2ccccc2)=N[C@@H]1Cc1c[nH]cn1 (relative stereo)	0.077 µM	0.69 µM	3.3 µM	1.6 µM	6.8 µM	> 10 µM	4 µM	0.75 µM			IC50 [4]: > 10 µM; IC50 [23]: > 10 µM; IC50 [7]: > 10 µM
C[C@@H]1SC(c2ccccc2)=N[C@H]1CO (relative stereo)	6.7 µM	3 µM	> 10 µM	5.3 µM	> 10 µM	> 10 µM	> 10 µM	35 µM	> 10 µM	> 10 µM	
C[C@@H]1SC(c2cccs2)=N[C@H]1CO (relative stereo)	> 10 µM	1.4 µM	> 10 µM	> 10 µM	> 10 µM	> 10 µM	> 10 µM	2.2 µM	> 10 µM	> 10 µM	
C[C@H]1SC(c2ccc(-c3ccccc3)cc2)=N[C@H]1Cc1c[nH]cn1 (relative stereo)		1.4 µM						2.3 µM	0.31 µM		
C[C@@H]1SC(c2ccc(-c3ccccc3)cc2)=N[C@H]1Cc1c[nH]cn1 (relative stereo)		1.1 µM						1.4 µM	0.24 µM		
C[C@@H]1SC(c2cc3ccccc3cc2O)=N[C@H]1CO (relative stereo)	1.8 µM	0.81 µM	> 10 µM	> 10 µM	> 10 µM	> 10 µM	> 10 µM	2.4 µM	> 10 µM	> 10 µM	
C[C@@H]1SC(c2ccco2)=N[C@H]1CO (relative stereo)	> 10 µM	> 10 µM	> 10 µM	> 10 µM	> 10 µM	> 10 µM	> 10 µM	> 10 µM	> 10 µM	> 10 µM	
CNc1ccccc1C1=N[C@@H](CO)[C@H](C)S1 (relative stereo)	3.6 µM	1.2 µM	> 10 µM	8.5 µM	> 10 µM	> 10 µM	> 10 µM	1.9 µM	> 10 µM	> 10 µM	
CCCCCCCCOc1ccc(C2=N[C@@H](CO)[C@H](C)S2)cc1 (relative stereo)	> 10 µM	> 10 µM	> 10 µM	> 10 µM	> 10 µM	> 10 µM	> 10 µM	3.6 µM	6.9 µM	> 10 µM	IC50 [4]: > 10 µM
C[C@@H]1SC(c2ccsc2)=N[C@H]1CO (relative stereo)	6.7 µM	1.5 µM	> 10 µM	8.6 µM	8.2 µM	> 10 µM	> 10 µM	> 10 µM	> 10 µM	> 10 µM	
OC[C@@H]1CSC(c2ccccc2O)=N1 [AERUGINE]											Ki [11]: > 10 µM; Ki [13]: > 10 µM; Ki [14]: > 10 µM; Ki [15]: > 10 µM; Ki [16]: > 10 µM; Ki [17]: > 10 µM; Ki [18]: > 10 µM; Ki [19]: > 10 µM; Ki [20]: > 10 µM
NC(=O)c1csc(-c2ccccc2O)n1 [PULICATINS F]											Ki [11]: > 10 µM; Ki [13]: > 10 µM; Ki [14]: > 10 µM; Ki [15]: > 10 µM; Ki [16]: > 10 µM; Ki [17]: > 10 µM; Ki [18]: > 10 µM; Ki [19]: > 10 µM; Ki [20]: > 10 µM
C[C@@H]1SC(c2ccccc2O)=N[C@H]1[C@@H]1SC[C@](C)(C(=O)O)N1C [WATASEMYCINS A]											Ki [11]: > 10 µM; Ki [12]: 4.7 µM; Ki [13]: > 10 µM; Ki [14]: > 10 µM; Ki [15]: > 10 µM; Ki [16]: > 10 µM; Ki [17]: > 10 µM; Ki [18]: > 10 µM; Ki [19]: > 10 µM; Ki [20]: > 10 µM
C[C@@H]1SC(c2ccccc2O)=N[C@H]1[C@H]1SC[C@](C)(C(=O)O)N1C [WATASEMYCINS B]											Ki [11]: > 10 µM; Ki [12]: 3.9 µM; Ki [13]: > 10 µM; Ki [14]: > 10 µM; Ki [15]: > 10 µM; Ki [16]: > 10 µM; Ki [17]: > 10 µM; Ki [18]: > 10 µM; Ki [19]: > 10 µM; Ki [20]: > 10 µM
